The source of these data is patent publication US5807889A, “Aminomethylindans, -benzofuranes and -benzothiophenes” (H. Lundbeck A/S, priority 1992, dated 1998).

Assay [1] addresses T1, 5-HT1A receptors (Rattus norvegicus, UniProt P19327).
T1 sequence (P19327 1-422): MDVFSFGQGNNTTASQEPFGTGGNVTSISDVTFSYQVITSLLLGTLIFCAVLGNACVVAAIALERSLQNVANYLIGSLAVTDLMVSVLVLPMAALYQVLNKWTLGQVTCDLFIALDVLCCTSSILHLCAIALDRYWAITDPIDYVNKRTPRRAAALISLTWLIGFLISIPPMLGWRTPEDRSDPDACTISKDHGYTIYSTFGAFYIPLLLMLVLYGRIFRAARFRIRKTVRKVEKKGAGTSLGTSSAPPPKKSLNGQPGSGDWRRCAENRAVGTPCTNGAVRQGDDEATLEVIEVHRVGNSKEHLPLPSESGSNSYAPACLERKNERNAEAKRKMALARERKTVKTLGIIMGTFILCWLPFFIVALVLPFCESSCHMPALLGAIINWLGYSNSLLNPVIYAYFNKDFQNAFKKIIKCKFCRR
Briefly: 8-OH DPAT cue agonism in rats (drug discrimination). Type of assay: in vivo, male Wistar rats. Set-up: agonist effects of a test compound on 5-HT1A receptors in vivo; from tissue; host or cells: living male Wistar rats (endogenous receptor, in vivo). The note with it: sc, read-out: 8-OH DPAT Cue Agonism ED50, rats, s.c., usually 30 or 45 min before test. On the procedure:
8-OH DPAT Cue Agonisme in Rats
This test model is used to determine the agonist effects of a test compound on 5-HT1A receptors in vivo. A related method is described by Tricklebank, M. D., et al, Eur. J. Pharmacol., 1987, 133, 47-56; Arnt, J. Pharmacology & Toxicology, 1989, 64, 165.
Male Wistar rats are trained to discriminate between 8-OH-DPAT (0.4 mg/kg, i.p., 15 min pretreatment) and physiological saline in operant chambers equipped with two response levers. Between the levers a dipper is placed, where water rewards (0.1 ml) are presented. The rats are water deprived for at least 24 h and work in a fixed ratio (FR) schedule (final FR=32).
Following 8-OH-DPAT administration responding is reinforced only on a designated (drug) lever, whereas responding on the opposite lever has no consequences. Following saline administration responding is reinforced on the lever opposite to the drug lever. Drug and saline trials alternate randomly between days. The level of s discrimination occuracy is expressed as the per cent drug responses and is calculated as the number of correct responses ×100 divided by the sum of the correct and incorrect responses before the first reward. The time to the first reward is also recorded as a measure of reaction time. When stable occuracy (mean correst responding=90%; individual rats at least 75% correct responding) is obtained test sessions are included between training days. Test compound is injected s.c. usually 30 min or 45 min, respectively, before beginning of the test. The test trial is terminated when a total of 32 responses are made on either lever or when 20 min have elapsed. No reward is given and the rats have free access to water for 20-30 min after the test. The effects are expressed as per cent drug responding. Only results from rats making at least 10 responses on one lever are included in data analysis. Furthermore, only test sessions in which at least half of the rats respond are included.
The per cent inhibition of drug response obtained for each dose of test compound is used to calculate ED50 values by log-probit analysis.

Assay [2] addresses T1, 5-HT1A receptors. The experiment in a line: Inhibition of 3H-8-OH-DPAT binding to serotonin 5-HT1A receptors in rat brain in vitro. Set-up: 5-HT1A receptors in membranes from rat brain minus cerebellum; from tissue; host or cells: brain minus cerebellum of male Wistar (Mol:Wist) rats, crude membranes; species or system rat (male Wistar). The note with it: 3H 8-OH DPAT binding IC50, 1 nM 3H-8-OH-DPAT, rat brain minus cerebellum membranes, 37° C., 15 min.
Procedure: Male Wistar (Mol:Wist) rats (125-250 g) are sacrificed and the brain is dissected and weighed. The brain tissue minus cerebellum is homogenized (Ultra Turrax, 20 sec) in 10 ml of ice cold 50 nM Tris buffer pH 8.0 (at 25° C.) containing 120 mM NaCl, 4 mM CaCl2 and 4 mM MgCl2. The homogenate is centrifuged at 20,000 g for 10 min at 4° C. The pellet is homogenized in 10 ml of buffer and incubated at 37° C. for 10 min. The homogenate is centrifuged as above and the pellet is homogenized in 100 vol (w/v) ice cold buffer containing 10 μM of pargyline.
Incubation tubes kept on ice in triplicate receive 100 μl of drug solution in water (or water for total binding) and 1000 μl of tissue suspension (final tissue content corresponds to 10 mg original tissue). […] After incubation for 15 min the samples are filtered under vacuum (0-50 mBar) through Whatman GF/F filters (25 mm). The tubes are rinsed with 5 ml ice cold 0.9% NaCl which is then poured on the filters. Thereafter, the filters are washed with 2×5 ml 0.9% NaCl. The filters are placed in counting vials and 4 ml of appropriate scintillation fluid (e.g. Picofluor™ 15) are added. After shaking for 1 h and storage 2 h in the dark the content of radioactivity is determined by liquid scintillation counting. Specific binding is obtained by subtracting the nonspecific binding in the presence of 10 μM of 5-HT.
For determination of the inhibition of binding five concentrations of drugs covering 3 decades are used.
The IC50 -value is determined as the concentration, at which the binding is 50% of the total binding in control samples minus the nonspecific binding in the presence of 10 μM of 5-HT.

The conditions of assay [3]: clinical studies; Glitz, Pohl, Drugs 1991; cited from earlier work.

For the molecule `CCCN(CCC)CC1CCc2cc(Cl)c(NC(C)=O)cc21` (single isomer, unassigned; (-)) [Compound 11b, (-)-6-Acetylamino-5-chloro-1-(N,N-dipropylaminomethyl)indan], in assay [1], the ED50 is 0.44 µmol/kg. In assay [2], the IC50 is 15 nM.

As to `CCCN(CCC)C1CCc2cccc(O)c2C1` (stereo not drawn) [8-OH DPAT, 8-hydroxy-2-dipropylaminotetralin, reference compound], the ED50 in assay [1] was 0.1 µmol/kg.

As for `CCCN(CCC)CC1CCc2ccc(NC=O)cc21` (stereo not drawn) [Compound 1a, 1-(N,N-dipropylaminomethyl)-6-formylaminoindan], in assay [1], the ED50 worked out at 0.0052 µmol/kg. In assay [2], this molecule showed an IC50 of 4.1 nM.

As to `CN(C)CC1CCc2ccc(NC=O)cc21` (stereo not drawn) [Compound 1b, 1-(N,N-dimethylaminomethyl)-6-formylaminoindan], the ED50 in assay [1] amounted to 0.41 µmol/kg. The molecule also yielded an IC50 in assay [2] of 110 nM.

Take `O=CNc1ccc2c(c1)C(CN1CCCCC1)CC2` (stereo not drawn) [Compound 1c, 6-formylamino-1-(1-piperidinomethyl)indan]: in assay [1], the 50% effective dose (ED50) was 0.33 µmol/kg. Moreover, the IC50 in assay [2] amounted to 42 nM.

As for `CCCN(CCC)CC1CCc2ccc(NC(C)=O)cc21` (stereo not drawn) [Compound 2a, 6-Acetylamino-1-(N,N-dipropylaminomethyl)indan], the ED50 in assay [1] amounted to 0.01 µmol/kg. In assay [2], the 50% inhibitory concentration (IC50) is 0.89 nM.

`CC(=O)Nc1ccc2c(c1)C(CN(C)C)CC2` (stereo not drawn) [Compound 2b, 6-Acetylamino-1-(N,N-dimethylaminomethyl)indan]: the ED50 in assay [1] worked out at 0.21 µmol/kg. This molecule also returned an IC50 in assay [2] of 25 nM.

With `CCCN(CCC)CC1CCc2ccc(NC(=O)c3ccc(F)cc3)cc21` (stereo not drawn) [Compound 2c, 1-(N,N-dipropylaminomethyl)-6-(4-fluorobenzoylamino)indan], the ED50 in assay [1] came to 2.2 µmol/kg. The molecule also had an IC50 in assay [2] of 5.1 nM.

As for `CCCN(CCC)CC1CCc2ccc(NS(C)(=O)=O)cc21` (stereo not drawn) [Compound 2g, 1-(N,N-dipropylaminomethyl)-6-(methylsulphonylamino)indan], the ED50 in assay [1] came out at 0.93 µmol/kg. The same molecule registered an IC50 in assay [2] of 16 nM.

Take `CCCN(CCC)CC1CCc2ccc(NC(=O)N(C)C)cc21` (stereo not drawn) [Compound 4c, 6-(3,3-dimethyl-1-ureido)-1-(N,N-dipropylaminomethyl)indan]: the ED50 in assay [1] is 0.42 µmol/kg. In addition, the IC50 in assay [2] was 10 nM.

Regarding `CCCN(CCC)CC1CSc2ccc(NC=O)cc21` (stereo not drawn) [Compound 5a, 3-(N,N-dipropylaminomethyl)-5-formylamino-2,3-dihydrobenzothiophene], the ED50 in assay [1] stood at 0.046 µmol/kg. The same molecule came in with an IC50 in assay [2] of 3.4 nM.

`CCCN(CCC)CC1CCc2cc(Cl)c(NC(C)=O)cc21` (stereo not drawn) [Compound 11a, 6-Acetylamino-5-chloro-1-(N,N-dipropylaminomethyl)indan]: the ED50 in assay [1] turned out to be 0.26 µmol/kg. The molecule also yielded an IC50 in assay [2] of 21 nM.

On to `CC(=O)Nc1ccc2c(c1)C(CN(C)CCCCC1CCCCC1)CC2` (stereo not drawn) [Compound 13a, 6-Acetylamino-1-[N-(4-cyclohexylbutan-1-yl)-N-methylaminomethyl]indan], for which the ED50 in assay [1] worked out at 0.15 µmol/kg. Besides, the IC50 in assay [2] came out at 1.4 nM.

Turning to `CC(=O)Nc1ccc2c(c1)C(CN(C)CCCCc1ccccc1)CC2` (stereo not drawn) [Compound 13b, 6-Acetylamino-1-[N-methyl-N-(4-phenylbutan-1-yl)aminomethyl]indan], the ED50 in assay [1] was determined as 0.22 µmol/kg. This molecule also came in with a 50% inhibitory concentration (IC50) in assay [2] of 3.4 nM.

`CC(=O)Nc1ccc2c(c1)C(CN(C)CCCCc1c[nH]c3ccccc13)CC2` (stereo not drawn) [Compound 13c, 6-Acetylamino-1-[N-[4-(indol-3-yl)butan-1-yl]-N-methylaminomethyl]indan]: in assay [1], the ED50 came out at 0.66 µmol/kg. Also, the IC50 in assay [2] amounted to 1.5 nM.

For the molecule `CC(=O)Nc1ccc2c(c1)C(CN(C)CCN1CCNC1=O)CC2` (stereo not drawn) [Compound 13d, 6-Acetylamino-1-[N-[2-(2-imidazolidinon-1-yl)ethyl]-N -methylaminomethyl]indan], the ED50 in assay [1] came to 0.61 µmol/kg. In addition, the IC50 in assay [2] came to 1.8 nM.

As to `CC1(C)CC(=O)N(CCCCN2CCN(c3ncccn3)CC2)C(=O)C1` [gepirone, 4,4-dimethyl-1-[4-[4-(2-pyrimidyl)-1-piperazinyl]butyl]-2,6-piperidinedione], the “usefulness in the treatment of anxiety disorders (in words)” value in assay [3] is listed as “useful in the treatment of anxiety disorders”.

Turning to `O=C1c2ccccc2S(=O)(=O)N1CCCCN1CCN(c2ncccn2)CC1` [ipsapirone, 2-[4-[4-(2-pyrimidyl)-1-piperazinyl]butyl]-1,2-benzothiazol-3(2H)-one-1,1-dioxide], the “usefulness in the treatment of anxiety disorders (in words)” value in assay [3] is on record as “useful in the treatment of anxiety disorders”.
